Measurements as given in ChEMBL document CHEMBL4422652, “Synthesis and biological evaluation of novel oleanolic acid analogues as potential α-glucosidase inhibitors” (Eur J Med Chem, 2019).
pIC50, pKi: −log10 of the molar value. One block for each compound: values may come before it. Activity calls are given as the source filed them. No cut-off for these calls is given here.

How the values were obtained:
[1] = Inhibition of baker's yeast alpha-glucosidase using phenol-alphaD-glycopyranoside as substrate preincubated for 10 mins followed by substrate addition and measured after 30 mins; set-up: species or system Saccharomyces cerevisiae
[2] = system: NIH3T3; assay: Cytotoxicity against mouse 3T3 cells assessed as growth inhibition measured after 48 hrs by MTT assay; type: cell-based; conditions: NIH3T3, 48 h
[3] = system: Saccharomyces cerevisiae; assay: Non-competitive inhibition of baker's yeast alpha-glucosidase assessed as Km for substrate using varying levels of phenol-alphaD-glycopyranoside as substrate preincubated for 10 mins followed by substrate addition and measured after 30 mins by double reciprocal plot analysis
[4] = system: Mus musculus; assay: Hypoglycemic activity in streptozocin-induced diabetic Kunming mouse assessed as blood glucose level at 50 mg/kg, po administered once daily for 18 days measured on day 12 post dose (reference value: 23.09 +/- 1.45 mM); type: functional
[5] = system: Mus musculus; assay: Hypoglycemic activity in streptozocin-induced diabetic Kunming mouse assessed as blood glucose level at 50 mg/kg, po administered once daily for 18 days measured on day 1 post dose (reference value: 18.86 +/- 0.7 mM); type: functional
[6] = system: Mus musculus; assay: Hypoglycemic activity in streptozocin-induced diabetic Kunming mouse assessed as reduction in blood glucose level at 50 mg/kg, po measured at 2 hrs post dose; type: functional, organism-based
[7] = system: Mus musculus; assay: Hypoglycemic activity in streptozocin-induced diabetic Kunming mouse assessed as blood glucose level at 50 mg/kg, po administered once daily for 18 days measured on day 6 post dose (reference value: 22.31 +/- 1.05 mM); type: functional
[8] = system: Mus musculus; assay: Hypoglycemic activity in streptozocin-induced diabetic Kunming mouse assessed as reduction in blood glucose level at 50 mg/kg, po measured at 9 hrs post dose; type: functional, organism-based
[9] = Non-competitive inhibition of baker's yeast alpha-glucosidase using varying levels of phenol-alphaD-glycopyranoside as substrate preincubated for 10 mins followed by substrate addition and measured after 30 mins by double reciprocal plot analysis; set-up: species or system Saccharomyces cerevisiae
[10] = system: Mus musculus; assay: Hypoglycemic activity in streptozocin-induced diabetic Kunming mouse assessed as reduction in blood glucose level at 50 mg/kg, po treated 30 mins prior to glucose challenge and measured up to 210 mins by OGTT; type: functional, organism-based
[11] = system: Mus musculus; assay: Hypoglycemic activity in streptozocin-induced diabetic Kunming mouse assessed as blood glucose level at 50 mg/kg, po administered once daily for 18 days measured on day 12 post dose (reference value: 23.27 +/- 1.03 mM); type: functional
[12] = Toxicity in streptozocin-induced diabetic Kunming mouse assessed as effect on body weight at 50 mg/kg, po administered once daily for 18 days measured every 6 days starting from day 1 during compound dosing; type: organism-based; conditions: in vivo
[13] = system: Mus musculus; assay: Hypoglycemic activity in streptozocin-induced diabetic Kunming mouse assessed as reduction in blood glucose AUC at 50 mg/kg, po treated 30 mins prior to glucose challenge and measured up to 210 mins by OGTT; type: functional, organism-based

pIC50 [1]: 5.97
Structure (SMILES): CC1(C)CC[C@@]23CC[C@]4(C)[C@](OC2=O)([C@H](F)C[C@@H]2[C@@]5(C)C/C(=C\c6ccc(Br)cc6)C(=O)C(C)(C)[C@@H]5CC[C@]24C)[C@@H]3C1

pIC50 [1]: 5.89
Structure (SMILES): Cc1ccc(/C=C2\C[C@]3(C)[C@H]4C[C@@H](F)[C@]56OC(=O)[C@@]7(CCC(C)(C)C[C@H]75)CC[C@@]6(C)[C@]4(C)CC[C@H]3C(C)(C)C2=O)cc1

pIC50 [1]: 5.73
Structure (SMILES): CC1(C)CC[C@@]23CC[C@]4(C)[C@](OC2=O)([C@H](F)C[C@@H]2[C@@]5(C)C/C(=C\c6cccc(Br)c6)C(=O)C(C)(C)[C@@H]5CC[C@]24C)[C@@H]3C1

pIC50 [1]: 5.46
Structure (SMILES): CC1(C)CC[C@@]23CC[C@]4(C)[C@](OC2=O)([C@H](F)C[C@@H]2[C@@]5(C)C/C(=C\c6ccccc6)C(=O)C(C)(C)[C@@H]5CC[C@]24C)[C@@H]3C1

pIC50 [1]: 5.09
Structure (SMILES): CC1(C)CC[C@@]23CC[C@]4(C)[C@](OC2=O)([C@H](F)C[C@@H]2[C@@]5(C)CC[C@H](O)C(C)(C)[C@@H]5CC[C@]24C)[C@@H]3C1

pIC50 [1]: 5.82
Structure (SMILES): CC1(C)CC[C@@]23CC[C@]4(C)[C@](OC2=O)([C@H](F)C[C@@H]2[C@@]5(C)C/C(=C\c6ccc(F)cc6)C(=O)C(C)(C)[C@@H]5CC[C@]24C)[C@@H]3C1

pIC50 [1]: 5.76
Structure (SMILES): CC1(C)CC[C@@]23CC[C@]4(C)[C@](OC2=O)([C@H](F)C[C@@H]2[C@@]5(C)C/C(=C\c6ccccc6F)C(=O)C(C)(C)[C@@H]5CC[C@]24C)[C@@H]3C1

pIC50 [1]: 5.72
Structure (SMILES): COc1ccc(/C=C2\C[C@]3(C)[C@H]4C[C@@H](F)[C@]56OC(=O)[C@@]7(CCC(C)(C)C[C@H]75)CC[C@@]6(C)[C@]4(C)CC[C@H]3C(C)(C)C2=O)c(OC)c1

pIC50 [1]: 5.93
Structure (SMILES): CC1(C)CC[C@@]23CC[C@]4(C)[C@](OC2=O)([C@H](F)C[C@@H]2[C@@]5(C)C/C(=C\c6ccc(Br)cc6F)C(=O)C(C)(C)[C@@H]5CC[C@]24C)[C@@H]3C1

Structure (SMILES): C[C@@H]1C[C@@H]([C@H](O)CC2CC(=O)NC(=O)C2)C(=O)[C@@H](C)C1 [CYCLOHEXIMIDE]
pIC50 [2]: 6.60

pIC50 [1]: 5.56
Structure (SMILES): COc1ccccc1/C=C1\C[C@]2(C)[C@H]3C[C@@H](F)[C@]45OC(=O)[C@@]6(CCC(C)(C)C[C@H]64)CC[C@@]5(C)[C@]3(C)CC[C@H]2C(C)(C)C1=O

pIC50 [1]: 5.69
Structure (SMILES): COc1ncc(F)cc1/C=C1\C[C@]2(C)[C@H]3C[C@@H](F)[C@]45OC(=O)[C@@]6(CCC(C)(C)C[C@H]64)CC[C@@]5(C)[C@]3(C)CC[C@H]2C(C)(C)C1=O

pIC50 [1]: 4.78
Structure (SMILES): CC1(C)CC[C@@]23CC[C@]4(C)[C@](OC2=O)([C@H](F)C[C@@H]2[C@@]5(C)CCC(=O)C(C)(C)[C@@H]5CC[C@]24C)[C@@H]3C1

Km [3]: 120 µM
pIC50 [1]: 6.01
pKi [9]: 5.83
Structure (SMILES): CC1(C)CC[C@@]23CC[C@]4(C)[C@](OC2=O)([C@H](F)C[C@@H]2[C@@]5(C)C/C(=C\c6cccc(Cl)c6)C(=O)C(C)(C)[C@@H]5CC[C@]24C)[C@@H]3C1
Activity [4]: 23.51 mM
Activity [5]: 20.66 mM
Activity [6]: Active
pIC50 [2]: < 3.52
Activity [7]: 24.39 mM
Activity [8]: Active
Activity [10]: Active
Activity [11]: 17.52 mM
Activity [12]: Non-Toxic
Activity [13]: Active

Km [3]: 120 µM
pIC50 [1]: 6.16
pKi [9]: 6.06
Structure (SMILES): CC1(C)CC[C@@]23CC[C@]4(C)[C@](OC2=O)([C@H](F)C[C@@H]2[C@@]5(C)C/C(=C\c6ccc(Cl)cc6)C(=O)C(C)(C)[C@@H]5CC[C@]24C)[C@@H]3C1
Activity [4]: 20.25 mM
Activity [5]: 19.59 mM
pIC50 [2]: < 3.52
Activity [7]: 23.59 mM
Activity [8]: Active
Activity [10]: Active
Activity [11]: 16.22 mM
Activity [12]: Non-Toxic
Activity [13]: Active

Km [3]: 120 µM
pIC50 [1]: 6.14
pKi [9]: 5.92
Structure (SMILES): CC1(C)CC[C@@]23CC[C@]4(C)[C@](OC2=O)([C@H](F)C[C@@H]2[C@@]5(C)C/C(=C\c6ccc(Cl)cn6)C(=O)C(C)(C)[C@@H]5CC[C@]24C)[C@@H]3C1
Activity [4]: 18.29 mM
Activity [5]: 17.45 mM
Activity [6]: Active
pIC50 [2]: < 3.52
Activity [7]: 20.51 mM
Activity [8]: Active
Activity [10]: Active
Activity [11]: 13.13 mM
Activity [12]: Non-Toxic
Activity [13]: Active
